Several values for one entry are separate records, joined by “and”; a condition that tells them apart may be missing. Equal values may be shown once. Inconclusive results and toxic doses are left out.
System: P388 leukemia ip, CD2F1 mice, survival T/C
Experiment: NCI In Vivo Anticancer Drug Screen. Data for tumor model P388 Leukemia (intraperitoneal) in CD2F1 (CDF1) mice
Conditions: endpoint: median survival time, higher = longer survival
Method in brief: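 Mice carrying the transplanted tumor received test compound or vehicle. Survival was recorded in each group, and the value is the treated-group measurement divided by that of the vehicle-treated control group.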

[1] = dose: 50.0 mg/kg/injection, schedule: Q01DX009 (ip), vehicle: saline with Tween-80
[2] = dose: 100.0 mg/kg/injection, schedule: Q01DX009 (ip), vehicle: saline with Tween-80
[3] = dose: 12.5 mg/kg/injection, schedule: Q01DX009 (ip), vehicle: saline with Tween-80
[4] = dose: 25.0 mg/kg/injection, schedule: Q01DX009 (ip), vehicle: saline with Tween-80
[5] = dose: 25.0 mg/kg/injection, schedule: Q01DX009 (ip), vehicle: saline
[6] = dose: 50.0 mg/kg/injection, schedule: Q01DX009 (ip), vehicle: saline
[7] = dose: 50.0 mg/kg/injection, schedule: Q01DX009 (ip), vehicle: Klucel (hydroxypropylcellulose) (HPC)
[8] = dose: 100.0 mg/kg/injection, schedule: Q01DX009 (ip), vehicle: Klucel (hydroxypropylcellulose) (HPC)
[9] = dose: 200.0 mg/kg/injection, schedule: Q01DX009 (ip), vehicle: Klucel (hydroxypropylcellulose) (HPC)
[10] = dose: 200.0 mg/kg/injection, schedule: Q01DX009 (ip), vehicle: saline with Tween-80
[11] = dose: 50.0 mg/kg/injection, schedule: Q01DX005 (ip), vehicle: Klucel (hydroxypropylcellulose) (HPC)
[12] = dose: 100.0 mg/kg/injection, schedule: Q01DX005 (ip), vehicle: Klucel (hydroxypropylcellulose) (HPC)
[13] = dose: 200.0 mg/kg/injection, schedule: Q01DX005 (ip), vehicle: Klucel (hydroxypropylcellulose) (HPC)
[14] = dose: 25.0 mg/kg/injection, schedule: Q01DX009 (ip), vehicle: Klucel (hydroxypropylcellulose) (HPC)

COc1cc(N)ccc1Nc1c2ccccc2nc2ccccc12
T/C (dose: 12.5 mg/kg/injection, schedule: Q04DX002 (ip), vehicle: distilled water + Tween-80): 117 % of control | T/C (dose: 50.0 mg/kg/injection, schedule: Q04DX002 (ip), vehicle: distilled water + Tween-80): 165 % of control | T/C (dose: 100.0 mg/kg/injection, schedule: Q04DX002 (ip), vehicle: distilled water + Tween-80): 166 % of control and 185 % of control | T/C (dose: 200.0 mg/kg/injection, schedule: Q04DX002 (ip), vehicle: distilled water + Tween-80): 194 % of control

CCOC(=O)C(=CNCc1ccccc1)C(=O)OCC
T/C (dose: 15.0 mg/kg/injection, schedule: Q01DX009 (ip), vehicle: saline with Tween-80): 106 % of control | T/C (dose: 30.0 mg/kg/injection, schedule: Q01DX009 (ip), vehicle: saline with Tween-80): 104 % of control | T/C (dose: 60.0 mg/kg/injection, schedule: Q01DX009 (ip), vehicle: saline with Tween-80): 95 % of control

NNC(=O)C(=O)Nc1ccc(F)cc1
T/C [1]: 96 % of control | T/C [2]: 100 % of control

CN(C)c1ncnc2c1ncn2C1OC(CO)C(N)C1O (configuration not stated)
T/C [3]: 104 % of control | T/C (dose: 12.5 mg/kg/injection, schedule: Q01DX009 (ip), vehicle: saline): 118 % of control | T/C [4]: 113 % of control | T/C [5]: 119 % of control | T/C [6]: 117 % of control | T/C (dose: 75.0 mg/kg/injection, schedule: Q01DX009 (ip), vehicle: saline sonified): 163 % of control | T/C (dose: 100.0 mg/kg/injection, schedule: Q04DX003 (ip), vehicle: saline sonified): 119 % of control | T/C (dose: 200.0 mg/kg/injection, schedule: Q04DX003 (ip), vehicle: saline sonified): 109 % of control | T/C (dose: 400.0 mg/kg/injection, schedule: Q04DX003 (ip), vehicle: saline sonified): 95 % of control

C=C(C)[C@H]1C[C@]2(C)[C@@H](C)CC(=O)C[C@H]2[C@@H](OC(=O)/C(C)=C\C)[C@@H]1OC(=O)/C(C)=C/C
T/C (dose: 130.0 mg/kg/injection, schedule: Q01DX001 (ip), vehicle: Klucel (hydroxypropylcellulose) (HPC)): 100 % of control | T/C (dose: 260.0 mg/kg/injection, schedule: Q01DX001 (ip), vehicle: Klucel (hydroxypropylcellulose) (HPC)): 99 % of control | T/C (dose: 520.0 mg/kg/injection, schedule: Q01DX001 (ip), vehicle: Klucel (hydroxypropylcellulose) (HPC)): 100 % of control

O=C(O)c1cc(-c2c(Cl)cccc2Cl)nc2cc3ccccc3cc12
T/C [7]: 111 % of control | T/C [8]: 106 % of control | T/C [9]: 106 % of control

COc1ccc(-n2c(=O)[nH]c3ccccc3c2=O)cc1
T/C [1]: 108 % of control | T/C [2]: 100 % of control | T/C [10]: 104 % of control

N#CC(C#N)=NNc1ccc2cn[nH]c2c1
T/C (dose: 12.5 mg/kg/injection, schedule: Q01DX005 (ip), vehicle: Klucel (hydroxypropylcellulose) (HPC)): 101 % of control | T/C (dose: 25.0 mg/kg/injection, schedule: Q01DX005 (ip), vehicle: Klucel (hydroxypropylcellulose) (HPC)): 105 % of control and 107 % of control | T/C [11]: 116 % of control and 119 % of control and 120 % of control

CCOC(=O)C(CC(C(=O)O)c1ccccc1)c1ccccc1 (configuration not stated)
T/C [11]: 100 % of control | T/C [12]: 96 % of control | T/C [13]: 96 % of control

O=CCSC(=S)NNc1ccccc1
T/C [5]: 103 % of control | T/C [6]: 90 % of control | T/C (dose: 100.0 mg/kg/injection, schedule: Q01DX009 (ip), vehicle: saline): 105 % of control | T/C (dose: 200.0 mg/kg/injection, schedule: Q01DX009 (ip), vehicle: saline): 96 % of control

COC(=O)c1c2cc(C(C)(C)C)cc-2c(N(C)C)nc(N(C)C)c1C(=O)OC
T/C (dose: 60.0 mg/kg/injection, schedule: Q01DX005 (ip), vehicle: Klucel (hydroxypropylcellulose) (HPC)): 95 % of control | T/C (dose: 120.0 mg/kg/injection, schedule: Q01DX005 (ip), vehicle: Klucel (hydroxypropylcellulose) (HPC)): 95 % of control

c1ccc(C2C(c3nc4ccccc4o3)C(c3ccccc3)C2c2nc3ccccc3o2)cc1 (configuration not stated)
T/C [11]: 91 % of control | T/C [12]: 89 % of control | T/C [13]: 86 % of control

O=c1[nH]cnc2ncccc12
T/C (dose: 12.5 mg/kg/injection, schedule: Q01DX009 (ip), vehicle: Klucel (hydroxypropylcellulose) (HPC)): 104 % of control | T/C [14]: 110 % of control | T/C [7]: 112 % of control | T/C [8]: 87 % of control

NCCN.NCCN.[Cl-].[O]=[Re]=[O]
T/C (dose: 60.0 mg/kg/injection, schedule: Q01DX005 (ip), vehicle: saline): 100 % of control | T/C (dose: 120.0 mg/kg/injection, schedule: Q01DX005 (ip), vehicle: saline): 102 % of control | T/C (dose: 240.0 mg/kg/injection, schedule: Q01DX005 (ip), vehicle: saline): 100 % of control

CCOC(=O)C1(NC(=O)Nc2ccccc2)CCCCC1
T/C [11]: 100 % of control | T/C [12]: 98 % of control | T/C [13]: 104 % of control

O=C(N1CCN(c2ccccc2)C1=O)N1CCN(c2ccccc2)C1=O
T/C [1]: 98 % of control | T/C [2]: 95 % of control | T/C [10]: 91 % of control

CN(c1ccc(Cc2ccc(N(C)S(C)(=O)=O)cc2)cc1)S(C)(=O)=O
T/C (dose: 50.0 mg/kg/injection, schedule: Q04DX002 (ip), vehicle: saline with Tween-80): 110 % of control | T/C (dose: 100.0 mg/kg/injection, schedule: Q04DX002 (ip), vehicle: saline with Tween-80): 101 % of control | T/C (dose: 200.0 mg/kg/injection, schedule: Q04DX002 (ip), vehicle: saline with Tween-80): 94 % of control | T/C (dose: 400.0 mg/kg/injection, schedule: Q04DX002 (ip), vehicle: saline with Tween-80): 92 % of control

c1ccc2c(c1)SCC1COCOC21 (configuration not stated)
T/C (dose: 100.0 mg/kg/injection, schedule: Q04DX003 (ip), vehicle: saline with Tween-80): 100 % of control | T/C (dose: 200.0 mg/kg/injection, schedule: Q04DX003 (ip), vehicle: saline with Tween-80): 103 % of control | T/C (dose: 400.0 mg/kg/injection, schedule: Q04DX003 (ip), vehicle: saline with Tween-80): 98 % of control

NC1=NS(=O)(=O)Nc2nc[nH]c21
T/C [1]: 101 % of control | T/C [2]: 100 % of control

COC1/C=C\OC2(C)Oc3c(C)c(O)c4c(O)c(c5c(c4c3C2=O)NC2(CCN(Cc3ccccc3)CC2)N=5)=NC(=O)/C(C)=C\C=C\C(C)C(O)C(C)C(O)C(C)C(OC(C)=O)C1C (configuration not stated)
T/C [14]: 102 % of control | T/C [7]: 107 % of control | T/C [8]: 111 % of control | T/C [9]: 103 % of control

CCCCOc1cc(C(=O)NCCN(CC)CC)c2ccccc2n1
T/C (dose: 6.25 mg/kg/injection, schedule: Q01DX009 (ip), vehicle: saline with Tween-80): 100 % of control | T/C [3]: 113 % of control | T/C [4]: 100 % of control

COC(=O)c1cc(=O)nc(NNC(C)=O)s1
T/C [11]: 103 % of control | T/C [12]: 96 % of control | T/C [13]: 106 % of control

C/C(=N\Nc1ccccn1)c1ccccn1
T/C (dose: 6.25 mg/kg/injection, schedule: Q01DX005 (ip), vehicle: saline with Tween-80): 104 % of control | T/C (dose: 12.5 mg/kg/injection, schedule: Q01DX005 (ip), vehicle: saline with Tween-80): 100 % of control | T/C (dose: 25.0 mg/kg/injection, schedule: Q01DX005 (ip), vehicle: saline with Tween-80): 101 % of control

CCn1c(=O)c2[nH]c(Cl)nc2n(CC)c1=O
T/C (dose: 25.0 mg/kg/injection, schedule: Q04DX003 (ip), vehicle: water): 91 % of control | T/C (dose: 50.0 mg/kg/injection, schedule: Q04DX003 (ip), vehicle: water): 103 % of control | T/C (dose: 100.0 mg/kg/injection, schedule: Q04DX003 (ip), vehicle: water): 112 % of control

Cc1nc2ncn(-c3ccccc3)c2c(=O)n1Cc1ccco1
T/C [11]: 103 % of control | T/C [12]: 103 % of control | T/C [13]: 95 % of control

O=NNc1ccc2cccnc2n1
T/C (dose: 3.12 mg/kg/injection, schedule: Q01DX009 (ip), vehicle: water): 99 % of control and 115 % of control | T/C (dose: 6.25 mg/kg/injection, schedule: Q01DX009 (ip), vehicle: water): 116 % of control and 123 % of control | T/C (dose: 25.0 mg/kg/injection, schedule: Q01DX009 (ip), vehicle: water): 150 % of control | T/C (dose: 50.0 mg/kg/injection, schedule: Q01DX009 (ip), vehicle: water): 187 % of control and 206 % of control

C=C1CC[N+]2(CCCC)CCCC12 (configuration not stated)
T/C (dose: 7.5 mg/kg/injection, schedule: Q01DX005 (ip), vehicle: saline): 104 % of control | T/C (dose: 15.0 mg/kg/injection, schedule: Q01DX005 (ip), vehicle: saline): 98 % of control | T/C (dose: 30.0 mg/kg/injection, schedule: Q01DX005 (ip), vehicle: saline): 100 % of control

CCCCNC(=S)NC(=O)c1ccccc1
T/C [4]: 95 % of control | T/C [1]: 94 % of control

Source: PubChem BioAssay AID330 (DTP/NCI, 2004)
